pEC50: −log10 of the molar value. “And” between values parts separate entries of the source, which are not always exact repeats. Identical values can stand only once. Some results are limits rather than exact numbers.

This note sets out measurements from USRE49735E1 (BRISTOL-MYERS SQUIBB COMPANY, priority 2010, dated 2023).

human mGluR5A, sequence (P41594 21-1180 isoform P41594-2): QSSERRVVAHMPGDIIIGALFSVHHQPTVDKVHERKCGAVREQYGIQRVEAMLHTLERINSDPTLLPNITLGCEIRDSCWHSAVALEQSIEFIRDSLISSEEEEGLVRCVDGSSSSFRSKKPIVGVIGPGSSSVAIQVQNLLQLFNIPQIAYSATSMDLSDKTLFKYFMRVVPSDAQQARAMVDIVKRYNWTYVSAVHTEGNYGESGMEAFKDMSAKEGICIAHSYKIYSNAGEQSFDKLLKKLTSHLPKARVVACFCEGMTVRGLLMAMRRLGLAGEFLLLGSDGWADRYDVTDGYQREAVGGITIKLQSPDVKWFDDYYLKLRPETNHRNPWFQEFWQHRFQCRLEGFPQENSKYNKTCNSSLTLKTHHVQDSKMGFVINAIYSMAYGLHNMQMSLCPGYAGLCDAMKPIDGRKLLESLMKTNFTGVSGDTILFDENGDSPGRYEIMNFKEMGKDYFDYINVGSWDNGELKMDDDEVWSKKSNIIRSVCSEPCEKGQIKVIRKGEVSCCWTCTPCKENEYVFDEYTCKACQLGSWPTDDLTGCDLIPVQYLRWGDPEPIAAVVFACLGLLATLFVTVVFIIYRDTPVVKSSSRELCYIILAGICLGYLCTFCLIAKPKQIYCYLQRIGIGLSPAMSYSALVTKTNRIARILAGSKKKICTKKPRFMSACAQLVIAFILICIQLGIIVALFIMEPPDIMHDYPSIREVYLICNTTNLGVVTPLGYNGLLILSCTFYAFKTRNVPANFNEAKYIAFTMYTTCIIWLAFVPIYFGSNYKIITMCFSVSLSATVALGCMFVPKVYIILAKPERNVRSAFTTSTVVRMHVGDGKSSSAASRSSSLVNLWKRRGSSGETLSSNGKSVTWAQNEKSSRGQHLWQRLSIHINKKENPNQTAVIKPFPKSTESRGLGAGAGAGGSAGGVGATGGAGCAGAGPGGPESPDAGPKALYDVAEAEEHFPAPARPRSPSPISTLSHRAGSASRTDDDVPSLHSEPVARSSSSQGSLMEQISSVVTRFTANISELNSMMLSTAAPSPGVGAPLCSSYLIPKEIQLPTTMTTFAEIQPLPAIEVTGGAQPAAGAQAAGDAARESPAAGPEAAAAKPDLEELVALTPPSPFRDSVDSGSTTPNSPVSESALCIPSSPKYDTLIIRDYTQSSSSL

This assay concerns the target human mGluR5A (Homo sapiens, UniProt P41594). Nature of the assay: mGluR5 FLIPR Assay. Type of assay: cell-based. Particulars: positive modulator activity; HEK293 (ZF) cells with human mGluR5A and rat GLAST; Ca++ response to ~EC10 glutamate.
`COC(=O)c1ccc(C#Cc2cccc([C@H]3NC(=O)O[C@@H]3c3cccc(OC)c3)c2)cc1` [Example 266] had a negative logarithm of the EC50 (pEC50) of 6.00 to 7.00.
`COC(=O)c1cccc(C#Cc2cccc([C@H]3NC(=O)O[C@@H]3c3cccc(OC)c3)c2)c1` [Example 267] gave a pEC50 of 6.00 to 7.00.
The result for `COc1cccc([C@H]2OC(=O)N[C@@H]2c2cccc(C#Cc3ccc(OC(F)(F)F)cc3)c2)c1` [Example 268] reads < 6.00; that for `COc1cccc([C@H]2OC(=O)N[C@@H]2c2cccc(C#Cc3cccc(OC(F)(F)F)c3)c2)c1` [Example 269], < 6.00; that for `O=C1N[C@H](c2nccc(C#Cc3ccccc3)n2)[C@@H](c2cccc(F)c2)O1` [Example 273], < 5.52.
On to `O=C1N[C@@H](c2nccc(C#Cc3ccccc3)n2)[C@H](c2cccc(F)c2)O1` [Example 274], for which the negative-log EC50 (pEC50) was < 6.00.
As to `O=C1N[C@H](c2ccnc(C#Cc3ccccc3)n2)[C@@H](c2cccc(F)c2)O1` [Example 275], the pEC50 was > 7.00.
On to `O=C1N[C@@H](c2ccnc(C#Cc3ccccc3)n2)[C@H](c2cccc(F)c2)O1` [Example 276], for which the negative logarithm of the EC50 (pEC50) is 6.00 to 7.00 and 6.33.
As to `O=C1N[C@H](c2cncc(C#Cc3ccccc3)c2)[C@@H](c2cccc(F)c2F)O1` [Example 277], the pEC50 was > 7.00 and 7.67.
The result for `O=C1N[C@H](c2cncc(C#Cc3ccccc3)c2)[C@@H](c2c(F)cccc2F)O1` [Example 278] reads < 6.00.
Take `O=C1N[C@H](c2cncc(C#Cc3ccc(F)cc3)c2)[C@@H](c2cc(F)ccc2F)O1` [Example 279]: the negative logarithm of the EC50 (pEC50) was > 7.00.
The result for `O=C1N[C@H](c2cncc(C#Cc3cccc(Cl)c3)c2)[C@@H](c2cccc(F)c2F)O1` [Example 280] reads < 6.00; that for `O=C1N[C@H](c2cncc(C#Cc3cccc(Cl)c3)c2)[C@@H](c2c(F)cccc2F)O1` [Example 281], < 6.00; that for `O=C1N[C@H](c2cncc(C#Cc3ccccc3F)c2)[C@@H](c2cc(F)ccc2F)O1` [Example 282], > 7.00.
The result for `O=C1N[C@H](c2cncc(C#Cc3cccc(F)c3)c2)[C@@H](c2cc(F)ccc2F)O1` [Example 283] reads > 7.00; that for `O=C1N[C@H](c2cncc(C#Cc3ccccc3F)c2)[C@@H](c2cccc(F)c2F)O1` [Example 284], > 7.00.
In the case of `O=C1N[C@H](c2cncc(C#Cc3cccc(F)c3)c2)[C@@H](c2cccc(F)c2F)O1` [Example 285] it was 6.00 to 7.00.
With `O=C1N[C@H](c2cncc(C#Cc3ccc(F)cc3)c2)[C@@H](c2cccc(F)c2F)O1` [Example 286], the pEC50 is > 7.00.
In the case of `O=C1N[C@H](c2cncc(C#Cc3ccccc3Cl)c2)[C@@H](c2cccc(F)c2F)O1` [Example 287] it was 6.00 to 7.00; in that of `C[C@@]1(c2cc(F)ccc2F)OC(=O)N[C@H]1c1cncc(C#Cc2ccccc2)c1` [Example 288], 6.00 to 7.00.
The result for `C[C@]1(c2cc(F)ccc2F)OC(=O)N[C@@H]1c1cncc(C#Cc2ccccc2)c1` [Example 289] reads > 7.00; that for `C[C@@]1(c2cc(F)ccc2F)OC(=O)N[C@@H]1c1cncc(C#Cc2ccccc2)c1` [Example 290], < 6.00; that for `C[C@]1(c2cc(F)ccc2F)OC(=O)N[C@H]1c1cncc(C#Cc2ccccc2)c1` [Example 291], 6.00 to 7.00.
The result for `O=C1N[C@H](c2cncc(C#Cc3ccccc3)c2)[C@@H](c2c(F)cc(F)cc2F)O1` [Example 292] reads > 7.00; that for `O=C1N[C@H](c2cncc(C#Cc3ccccc3)c2)[C@@H](c2cc(F)cc(F)c2F)O1` [Example 293], < 6.00; that for `O=C1N[C@H](c2cncc(C#Cc3ccccc3)c2)[C@@H](c2ccc(F)c(F)c2F)O1` [Example 294], > 7.00 and 8.57.
For the compound `O=C1N[C@H](c2cncc(C#Cc3cnccn3)c2)[C@@H](c2c(F)cc(F)cc2F)O1` [Example 295], the negative logarithm of the EC50 (pEC50) was < 6.00.
The result for `O=C1N[C@H](c2cncc(C#Cc3cnccn3)c2)[C@@H](c2ccc(F)c(F)c2F)O1` [Example 296] reads > 7.00; that for `O=C1N[C@H](c2cc(C#Cc3ccccc3)cnc2F)[C@@H](c2cccc(F)c2)O1` [Example 299, (4R,5R)-4-(2-Fluoro-5-(phenylethynyl)pyridin-3-yl)-5-(3-fluorophenyl)oxazolidin-2-one], > 7.00; that for `COc1ncc(C#Cc2ccccc2)cc1[C@H]1NC(=O)O[C@@H]1c1cccc(F)c1` [Example 300, (4R,5R)-5-(3-Fluorophenyl)-4-(2-methoxy-5-(phenylethynyl)pyridin-3-yl)oxazolidin-2-one], > 7.00.
As for `O=C1N[C@H](c2cc(C#Cc3ccccc3)ncc2F)[C@@H](c2cc(F)ccc2F)O1` [Example 301, (4R,5R)-5-(2,5-Difluorophenyl)-4-(5-fluoro-2-(phenylethynyl)pyridin-4-yl)oxazolidin-2-one], the negative-log EC50 (pEC50) was > 7.00.
Regarding `O=C1N[C@H](c2cc(C#Cc3ccccc3)cnc2F)[C@@H](c2cc(F)ccc2F)O1` [Example 302], the pEC50 was > 7.00.
For `COc1ncc(C#Cc2ccccc2)cc1[C@H]1NC(=O)O[C@@H]1c1cc(F)ccc1F` [Example 303, (4R,5R)-5-(2,5-Difluorophenyl)-4-(2-methoxy-5-(phenylethynyl)pyridin-3-yl)oxazolidin-2-one], the pEC50 is < 6.00.
The result for `O=C1N[C@H](c2cc(C#Cc3ccccc3)ncc2F)[C@@H](c2ccccc2F)O1` [Example 304, (4R,5R)-4-(5-Fluoro-2-(phenylethynyl)pyridin-4-yl)-5-(2-fluorophenyl)oxazolidin-2-one] reads > 7.00.
As for `O=C1N[C@@H](c2cncc(C#Cc3ccccc3)c2)[C@H](c2ncco2)O1` [Example 338, (4S,5R)-5-(oxazol-2-yl)-4-(5-(phenylethynyl)pyridin-3-yl)oxazolidin-2-one], the negative logarithm of the EC50 (pEC50) is < 6.00.
In the case of `O=C1N[C@H](c2cncc(C#Cc3ccccc3)c2)[C@@H](c2ncco2)O1` [Example 339, (4R,5S)-5-(oxazol-2-yl)-4-(5-(phenylethynyl)pyridin-3-yl)oxazolidin-2-one] it was < 6.00; in that of `Cn1nccc1[C@@H]1OC(=O)N[C@H]1c1cncc(C#Cc2ccccc2)c1` [Example 341, (4S,5R)-5-(1-methyl-1H-pyrazol-5-yl)-4-(5-(phenylethynyl)pyridin-3-yl)oxazolidin-2-one], < 6.00.
With `Cn1nccc1[C@H]1OC(=O)N[C@@H]1c1cncc(C#Cc2ccccc2)c1` [Example 342, (4R,5S)-5-(1-methyl-1H-pyrazol-5-yl)-4-(5-(phenylethynyl)pyridin-3-yl)oxazolidin-2-one], the negative-log EC50 (pEC50) is > 7.00.
For `N#Cc1ccc([C@H]2OC(=O)N[C@@H]2c2cncc(C#Cc3ccccc3)c2)cc1` [Example 365, 4-((4R,5R)-2-Oxo-4-(5-(phenylethynyl)pyridin-3-yl)oxazolidin-5-yl)benzonitrile], the pEC50 was > 7.00.
On to `O=C1NC(c2cccc(C#Cc3ccccc3)c2)C(c2cccc(O)c2)O1` [Example 380, (4R,5R)-5-(3-Hydroxyphenyl)-4-(3-phenylethynyl)phenyl)oxazolidin-2-one], for which the negative logarithm of the EC50 (pEC50) was > 7.00.
The result for `Cc1ccc(C#Cc2cncc([C@H]3NC(=O)O[C@@H]3c3cc(F)ccc3F)c2)cc1` [Example 381, (4R,5R)-5-(2,5-Difluorophenyl)-4-(5-(p-tolylethynyl)pyridin-3-yl)oxazolidin-2-one] reads 6.00 to 7.00.
In the case of `COc1ccc(C#Cc2cncc([C@H]3NC(=O)O[C@@H]3c3cc(F)ccc3F)c2)cc1` [Example 382, (4R,5R)-5-(2,5-difluorophenyl)-4-(5-((4-methoxyphenyl)ethynyl)pyridin-3-yl)oxazolidin-2-one] it was 6.00 to 7.00 and 6.27.
For `O=C1N[C@H](c2cncc(C#Cc3ccc(Cl)c(Cl)c3)c2)[C@@H](c2cc(F)ccc2F)O1` [Example 383, (4R,5R)-4-(5-((3,4-dichlorophenyl)ethynyl)pyridin-3-y1)-5-(2,5-difluorophenyl)oxazolidin-2-one], the negative-log EC50 (pEC50) is < 6.00.
Regarding `CC(C)(C)c1ccc(C#Cc2cncc([C@H]3NC(=O)O[C@@H]3c3cc(F)ccc3F)c2)cc1` [Example 384, (4R,5R)-4-(5-((4-tert-butylphenyl)ethynyl)pyridin-3-y1)-5-(2,5-difluorophenyl)oxazolidin-2-one], the pEC50 was < 6.00.
In the case of `O=C1N[C@H](c2cncc(C#Cc3cccc(Cl)c3)c2)[C@@H](c2cc(F)ccc2F)O1` [Example 385, (4R,5R)-4-(5-((3-chlorophenyl)ethynyl)pyridin-3-yl)-5-(2,5-difluorophenyl)oxazolidin-2-one], the negative logarithm of the EC50 (pEC50) was < 6.00.
On to `O=C1N[C@H](c2cncc(C#Cc3cccc(C(F)(F)F)c3)c2)[C@@H](c2cc(F)ccc2F)O1` [Example 386, (4R,5R)-5-(2,5-difluorophenyl)-4-(5-((3-(trifluoromethyl)phenyl)ethynyl)pyridin-3-yl)oxazolidin-2-one], for which the pEC50 was < 6.00.
Take `Cc1cccc(C#Cc2cncc([C@H]3NC(=O)O[C@@H]3c3cc(F)ccc3F)c2)c1` [Example 387, (4R,5R)-5-(2,5-difluorophenyl)-4-(5-(m-tolylethynyl)pyridin-3-yl)oxazolidin-2-one]: the negative logarithm of the EC50 (pEC50) is < 6.00.
In turn, `O=C1N[C@H](c2cncc(C#Cc3ccc(Cl)cc3)c2)[C@@H](c2cc(F)ccc2F)O1` [Example 388, (4R,5R)-4-(5-((4-chlorophenyl)ethynyl)pyridin-3-y1)-5-(2,5-difluorophenyl)oxazolidin-2-one] showed a pEC50 of 6.00 to 7.00.
Take `O=C1N[C@H](c2cncc(C#Cc3cc(Cl)cc(Cl)c3)c2)[C@@H](c2cc(F)ccc2F)O1` [Example 389, (4R,5R)-4-(5-((3,5-Dichlorophenyl)ethynyl)pyridin-3-yl)-5-(2,5-difluorophenyl)oxazolidin-2-one]: the negative logarithm of the EC50 (pEC50) is < 6.00.
The result for `Cc1ccccc1C#Cc1cncc([C@H]2NC(=O)O[C@@H]2c2cc(F)ccc2F)c1` [Example 390, (4R,5R)-5-(2,5-difluorophenyl)-4-(5-(o-tolylethynyl)pyridin-3-yl)oxazolidin-2-one] reads 6.00 to 7.00.
